{"source": "paper PMC2229574", "about": "(The Journal of General Physiology, 2003)", "key": {"mouse AChR αD97P": {"target": "mouse AChR αD97P (Mus musculus, UniProt P02716+P04756+P20782, D117P)", "details": "for α2 (diliganded channel closing rate constant): 0.4 mM choline; for β2 (diliganded channel opening rate constant): 20 mM choline; for L2 (diliganded gating equilibrium constant, β2/α2) / L2-ratio (mut/wt): choline"}, "mouse AChR αD97E": {"target": "mouse AChR αD97E (Mus musculus, UniProt P02716+P04756+P20782, D117E)", "sequence (P04756 21-457 D117E)": "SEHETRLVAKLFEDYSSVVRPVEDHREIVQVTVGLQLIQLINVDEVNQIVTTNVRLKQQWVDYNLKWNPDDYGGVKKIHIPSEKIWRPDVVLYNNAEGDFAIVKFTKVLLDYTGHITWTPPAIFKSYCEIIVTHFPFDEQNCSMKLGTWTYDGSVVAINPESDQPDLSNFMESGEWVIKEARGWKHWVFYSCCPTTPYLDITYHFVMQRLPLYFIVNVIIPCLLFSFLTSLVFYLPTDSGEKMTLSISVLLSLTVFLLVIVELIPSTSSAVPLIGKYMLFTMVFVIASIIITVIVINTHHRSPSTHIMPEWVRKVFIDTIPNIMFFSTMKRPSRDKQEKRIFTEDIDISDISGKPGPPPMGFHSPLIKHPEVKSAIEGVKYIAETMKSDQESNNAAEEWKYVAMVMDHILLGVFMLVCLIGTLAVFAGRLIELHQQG", "sequence (P09690 24-501 partner)": "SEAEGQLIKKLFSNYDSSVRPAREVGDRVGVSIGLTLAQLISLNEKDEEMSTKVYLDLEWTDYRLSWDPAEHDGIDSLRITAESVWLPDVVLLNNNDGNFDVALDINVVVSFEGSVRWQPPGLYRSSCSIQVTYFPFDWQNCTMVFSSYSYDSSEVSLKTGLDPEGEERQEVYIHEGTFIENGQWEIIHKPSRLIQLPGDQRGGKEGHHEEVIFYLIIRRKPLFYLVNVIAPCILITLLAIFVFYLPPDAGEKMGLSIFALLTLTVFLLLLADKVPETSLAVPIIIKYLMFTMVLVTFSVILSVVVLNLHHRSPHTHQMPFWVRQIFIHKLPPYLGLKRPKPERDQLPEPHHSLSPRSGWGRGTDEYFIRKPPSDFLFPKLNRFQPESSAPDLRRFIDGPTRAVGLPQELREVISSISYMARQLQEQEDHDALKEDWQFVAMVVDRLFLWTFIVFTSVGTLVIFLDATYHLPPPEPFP", "sequence (P02716 25-520)": "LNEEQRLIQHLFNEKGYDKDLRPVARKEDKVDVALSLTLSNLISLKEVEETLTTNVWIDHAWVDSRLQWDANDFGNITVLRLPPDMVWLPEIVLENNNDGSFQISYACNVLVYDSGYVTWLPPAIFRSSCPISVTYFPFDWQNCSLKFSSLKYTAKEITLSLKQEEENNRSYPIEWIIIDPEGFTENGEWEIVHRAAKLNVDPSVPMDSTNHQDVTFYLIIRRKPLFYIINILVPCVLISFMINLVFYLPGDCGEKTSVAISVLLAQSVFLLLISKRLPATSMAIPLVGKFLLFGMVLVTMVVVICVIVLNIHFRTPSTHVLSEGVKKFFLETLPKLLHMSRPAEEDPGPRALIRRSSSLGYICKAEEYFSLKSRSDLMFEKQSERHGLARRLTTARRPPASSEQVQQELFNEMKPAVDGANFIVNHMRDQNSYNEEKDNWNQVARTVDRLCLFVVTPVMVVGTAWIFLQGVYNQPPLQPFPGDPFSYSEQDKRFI", "sequence (P20782 21-493, stated change not applied)": "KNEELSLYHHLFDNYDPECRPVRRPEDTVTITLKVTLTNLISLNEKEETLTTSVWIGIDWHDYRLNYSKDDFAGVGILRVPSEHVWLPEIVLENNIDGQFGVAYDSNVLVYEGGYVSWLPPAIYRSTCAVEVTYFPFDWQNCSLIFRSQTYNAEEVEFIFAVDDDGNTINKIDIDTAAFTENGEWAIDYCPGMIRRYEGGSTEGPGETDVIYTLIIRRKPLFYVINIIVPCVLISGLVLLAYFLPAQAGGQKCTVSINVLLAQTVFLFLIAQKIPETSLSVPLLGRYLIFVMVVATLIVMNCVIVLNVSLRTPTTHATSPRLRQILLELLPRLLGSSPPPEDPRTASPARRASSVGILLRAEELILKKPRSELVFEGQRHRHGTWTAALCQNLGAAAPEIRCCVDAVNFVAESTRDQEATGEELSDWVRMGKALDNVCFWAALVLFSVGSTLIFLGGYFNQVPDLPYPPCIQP", "experiment": "cell-based"}, "mouse AChR αD97V": {"target": "mouse AChR αD97V (Mus musculus, UniProt P02716+P04756+P20782, D117V)", "sequence (P04756 21-457 D117V)": "as the sequence (P04756 21-457 D117E) above, with E97V counted along it", "sequence (P09690 24-501 partner)": "as the sequence (P09690 24-501 partner) above", "sequence (P02716 25-520)": "as the sequence (P02716 25-520) above", "sequence (P20782 21-493, stated change not applied)": "as the sequence (P20782 21-493, stated change not applied) above"}, "mouse AChR αD97G": {"target": "mouse AChR αD97G (Mus musculus, UniProt P02716+P04756+P20782, D117G)", "details": "for β2 (diliganded channel opening rate constant): 20 mM choline"}, "[1]": {"target": "mouse AChR δ-subunit N98V (Mus musculus, UniProt P02716+P04756+P20782, N122V)", "details": "20 mM choline"}, "mouse AChR αD97H": {"target": "mouse AChR αD97H (Mus musculus, UniProt P02716+P04756+P20782, D117H)", "experiment": "cell-based"}, "[2]": {"target": "mouse AChR β-subunit G98A (Mus musculus, UniProt P02716+P04756+P09690+P20782, G121A)", "details": "20 mM choline"}, "mouse AChR αD97R": {"target": "mouse AChR αD97R (Mus musculus, UniProt P02716+P04756+P20782, D117R)"}, "[3]": {"target": "mouse AChR δ-subunit N98A (Mus musculus, UniProt P02716+P04756+P20782, N122A)", "details": "20 mM choline"}, "[4]": {"target": "mouse AChR ɛ-subunit D97V (Mus musculus, UniProt P02716+P04756+P20782, D117V)", "details": "20 mM choline"}, "[5]": {"system": "hybrid AChR (one wild-type α-subunit and one D97A α-subunit), hybrid 1", "details": "20 mM choline"}, "[6]": {"target": "mouse AChR β-subunit G98V (Mus musculus, UniProt P02716+P04756+P09690+P20782, G121V)", "details": "20 mM choline"}, "mouse AChR αD97Q": {"target": "mouse AChR αD97Q (Mus musculus, UniProt P02716+P04756+P20782, D117Q)"}, "mouse AChR αD97I": {"target": "mouse AChR αD97I (Mus musculus, UniProt P02716+P04756+P20782, D117I)"}, "mouse AChR αD97L": {"target": "mouse AChR αD97L (Mus musculus, UniProt P02716+P04756+P20782, D117L)"}, "[7]": {"target": "mouse AChR β-subunit D97V (Mus musculus, UniProt P02716+P04756+P09690+P20782, D120V)", "details": "20 mM choline"}, "[8]": {"target": "mouse AChR ɛ-subunit D97A (Mus musculus, UniProt P02716+P04756+P20782, D117A)", "details": "20 mM choline"}, "mouse AChR αD97F": {"target": "mouse AChR αD97F (Mus musculus, UniProt P02716+P04756+P20782, D117F)"}, "[9]": {"details": "read-out: k+ (association rate constant, single TBS)"}, "[10]": {"details": "read-out: k− (dissociation rate constant, single TBS)"}}, "note": "“And” between values parts separate entries of the source, which are not always exact repeats. Identical values can stand only once. Like-named read-outs stand apart in the source and are kept apart here."}
{"smiles": "C[N+](C)(C)CCO", "note": "[choline]", "values": [{"measurement": "α2 (diliganded channel closing rate constant)", "setting": "mouse AChR αD97P; αD97P kinetic mode P1", "value": "2,276 s^−1"}, {"measurement": "β2 (diliganded channel opening rate constant)", "setting": "mouse AChR αD97P; αD97P kinetic mode P1", "value": 322, "unit": "s⁻¹"}, {"measurement": "L2 (diliganded gating equilibrium constant, β2/α2)", "setting": "mouse AChR αD97P; αD97P kinetic mode P1", "value": 0.141}, {"measurement": "L2-ratio (mut/wt)", "setting": "mouse AChR αD97P; αD97P kinetic mode P1", "value": 2.97}, {"measurement": "α2 (diliganded channel closing rate constant)", "setting": "mouse AChR αD97P; αD97P kinetic mode P2", "value": "2,276 s^−1"}, {"measurement": "β2 (diliganded channel opening rate constant)", "setting": "mouse AChR αD97P; αD97P kinetic mode P2", "value": "1,396 s^−1"}, {"measurement": "L2 (diliganded gating equilibrium constant, β2/α2)", "setting": "mouse AChR αD97P; αD97P kinetic mode P2", "value": 0.613}, {"measurement": "L2-ratio (mut/wt)", "setting": "mouse AChR αD97P; αD97P kinetic mode P2", "value": 12.88}, {"measurement": "Kd", "setting": "mouse AChR αD97E; Kd (k−/k+), αD97E, choline, kinetic modeling, Scheme I", "value": "2100 µM and 2140 µM"}, {"measurement": "kon", "setting": "mouse AChR αD97E; [9]", "value": "2.84e+06", "unit": "M⁻¹ s⁻¹"}, {"measurement": "koff", "setting": "mouse AChR αD97E; [10]", "value": 6070, "unit": "s⁻¹"}, {"measurement": "α2 (diliganded channel closing rate constant)", "setting": "mouse AChR αD97V; 0.4 mM choline", "value": "1,974 s^−1"}, {"measurement": "β2 (diliganded channel opening rate constant)", "setting": "mouse AChR αD97V; 20 mM choline", "value": 161, "unit": "s⁻¹"}, {"measurement": "L2 (diliganded gating equilibrium constant, β2/α2)", "setting": "mouse AChR αD97V; choline", "value": 0.082}, {"measurement": "L2-ratio (mut/wt)", "setting": "mouse AChR αD97V; choline", "value": 1.71}, {"measurement": "α2 (diliganded channel closing rate constant)", "setting": "mouse AChR αD97G; αD97G kinetic mode G1, 0.4 mM choline", "value": "2,105 s^−1"}, {"measurement": "β2 (diliganded channel opening rate constant)", "setting": "mouse AChR αD97G; αD97G kinetic mode G1", "value": 421, "unit": "s⁻¹"}, {"measurement": "L2 (diliganded gating equilibrium constant, β2/α2)", "setting": "mouse AChR αD97G; αD97G kinetic mode G1, choline", "value": 0.200}, {"measurement": "L2-ratio (mut/wt)", "setting": "mouse AChR αD97G; αD97G kinetic mode G1, choline", "value": 4.20}, {"measurement": "β2 (diliganded channel opening rate constant)", "setting": "mouse AChR αD97G; αD97G kinetic mode G2", "value": 570, "unit": "s⁻¹"}, {"measurement": "L2 (diliganded gating equilibrium constant, β2/α2)", "setting": "mouse AChR αD97G; αD97G kinetic mode G2, choline", "value": 0.605}, {"measurement": "α2* (apparent channel closing rate constant)", "setting": "[1]", "value": 437, "unit": "s⁻¹"}, {"measurement": "β2 (channel opening rate constant)", "setting": "[1]", "value": 62, "unit": "s⁻¹"}, {"measurement": "Kd", "setting": "mouse AChR αD97H; Kd (k−/k+), αD97H, choline, kinetic modeling, Scheme I", "value": "2800 µM and 2840 µM"}, {"measurement": "kon", "setting": "mouse AChR αD97H; [9]", "value": "1.06e+06", "unit": "M⁻¹ s⁻¹"}, {"measurement": "koff", "setting": "mouse AChR αD97H; [10]", "value": 2990, "unit": "s⁻¹"}, {"measurement": "α2* (apparent channel closing rate constant)", "setting": "[2]", "value": 861, "unit": "s⁻¹"}, {"measurement": "β2 (channel opening rate constant)", "setting": "[2]", "value": 49, "unit": "s⁻¹"}, {"measurement": "α2 (diliganded channel closing rate constant)", "setting": "mouse AChR αD97R; 0.4 mM choline", "value": "1,653 s^−1"}, {"measurement": "β2 (diliganded channel opening rate constant)", "setting": "mouse AChR αD97R; 20 mM choline", "value": "10,951 s^−1"}, {"measurement": "L2 (diliganded gating equilibrium constant, β2/α2)", "setting": "mouse AChR αD97R; choline", "value": 6.624}, {"measurement": "L2-ratio (mut/wt)", "setting": "mouse AChR αD97R; choline", "value": 139.12}, {"measurement": "α2* (apparent channel closing rate constant)", "setting": "[3]", "value": "1,335 s^−1"}, {"measurement": "β2 (channel opening rate constant)", "setting": "[3]", "value": 36, "unit": "s⁻¹"}, {"measurement": "α2* (apparent channel closing rate constant)", "setting": "[4]", "value": 933, "unit": "s⁻¹"}, {"measurement": "β2 (channel opening rate constant)", "setting": "[4]", "value": 103, "unit": "s⁻¹"}, {"measurement": "ΔΔG0 for channel gating, 0.59 ln(L2^wt/L2^mut)", "setting": "[5]", "value": 1.96, "unit": "kcal mol^−1"}, {"measurement": "α2* (apparent channel closing rate constant)", "setting": "[6]", "value": 471, "unit": "s⁻¹"}, {"measurement": "β2 (channel opening rate constant)", "setting": "[6]", "value": 80, "unit": "s⁻¹"}, {"measurement": "α2 (diliganded channel closing rate constant)", "setting": "mouse AChR αD97Q; 0.4 mM choline", "value": "2,016 s^−1"}, {"measurement": "β2 (diliganded channel opening rate constant)", "setting": "mouse AChR αD97Q; 20 mM choline", "value": "6,006 s^−1"}, {"measurement": "L2 (diliganded gating equilibrium constant, β2/α2)", "setting": "mouse AChR αD97Q; choline", "value": 2.979}, {"measurement": "L2-ratio (mut/wt)", "setting": "mouse AChR αD97Q; choline", "value": 62.56}, {"measurement": "α2 (diliganded channel closing rate constant)", "setting": "mouse AChR αD97I; 0.4 mM choline", "value": "2,801 s^−1"}, {"measurement": "β2 (diliganded channel opening rate constant)", "setting": "mouse AChR αD97I; 20 mM choline", "value": 60, "unit": "s⁻¹"}, {"measurement": "L2 (diliganded gating equilibrium constant, β2/α2)", "setting": "mouse AChR αD97I; choline", "value": 0.022}, {"measurement": "L2-ratio (mut/wt)", "setting": "mouse AChR αD97I; choline", "value": 0.45}, {"measurement": "α2 (diliganded channel closing rate constant)", "setting": "mouse AChR αD97L; 0.4 mM choline", "value": "2,684 s^−1"}, {"measurement": "β2 (diliganded channel opening rate constant)", "setting": "mouse AChR αD97L; 20 mM choline", "value": 91, "unit": "s⁻¹"}, {"measurement": "L2 (diliganded gating equilibrium constant, β2/α2)", "setting": "mouse AChR αD97L; choline", "value": 0.034}, {"measurement": "L2-ratio (mut/wt)", "setting": "mouse AChR αD97L; choline", "value": 0.71}, {"measurement": "α2* (apparent channel closing rate constant)", "setting": "[7]", "value": 762, "unit": "s⁻¹"}, {"measurement": "β2 (channel opening rate constant)", "setting": "[7]", "value": 85, "unit": "s⁻¹"}, {"measurement": "α2* (apparent channel closing rate constant)", "setting": "[8]", "value": 645, "unit": "s⁻¹"}, {"measurement": "β2 (channel opening rate constant)", "setting": "[8]", "value": 64, "unit": "s⁻¹"}, {"measurement": "α2 (diliganded channel closing rate constant)", "setting": "mouse AChR αD97F; 0.4 mM choline", "value": "1,831 s^−1"}, {"measurement": "β2 (diliganded channel opening rate constant)", "setting": "mouse AChR αD97F; 20 mM choline", "value": "2,748 s^−1"}, {"measurement": "L2 (diliganded gating equilibrium constant, β2/α2)", "setting": "mouse AChR αD97F; choline", "value": 1.501}, {"measurement": "L2-ratio (mut/wt)", "setting": "mouse AChR αD97F; choline", "value": 31.52}]}
